The values that follow come from patent US20070134193A1, “Cosmetic and/or pharmaceutical preparations” (priority 2001, published 2007).

Data set [1] concerns human keratinocytes. Put plainly: Cell protecting effect against UVB on human keratinocytes cultivated in vitro (number of keratinocytes, released LDH). The class given is cell-based. The note with it: UVB 50 mJ/cm^2, 0.03%.
Method: Method: the effect of UVB radiation was investigated in vitro on keratinocytes by determining the release of the cytoplasm enzyme LDH (lactate dehydrogenase). This enzyme serves as a marker for cell damage.
To carry out the test, a defined medium (DMEM) containing fetal calf serum was inoculated with the keratinocytes and added to the plant extract (diluted with saline solution) 72 hours after inoculation.
The keratinocytes were then exposed to a UVB dose (50 mJ/cm^2-tubes: DUKE FL40E).
After incubation for another day ay 37° C./5% CO2. the LDH content in the supernatant phase was determined. The LDH (lactate dehydrogenase) content was spectrophotometrically determined by determining the NADH content during the LDH-catalyzed conversion of pyruvate to lactate by Bonnekoh's method (Bonnekoh B. et al.; Dermatol. Research; 282; 325-329; 1990).
The number of adhering keratinocytes was determined by a DNA assay based on the fluorescence measurement of fluorochromium that binds to cellular DNA using Desaulniers' method (Desaulniers D. et al.; Toxicol. in vitro; 12; 409-422; 1998) and a particle counter. Another test was carried out for comparison using a standard anti-inflammatory, acetyl salicyclic acid.
The subject of data set [2] is human fibroblasts. The experiment in a line: Cell protecting effect against UVA on human fibroblasts cultivated in vitro (MDA level, protein content). It is filed as cell-based. The conditions noted are these: UVA 365 nm, + vitamin E, concentration not given. The procedure:
The lipoperoxides are degraded to malonaldialdehyde which will crosslink many biological molecules, such as proteins and nuclein bases (enzyme inhibition or mutagenesis).
Method: To carry out these tests, a defined culture medium (DMEM) containing the fibroblasts was inoculated with foetal calf serum and added to the plant extract (in the defined medium containing 10% foetal serum) 72 hours after inoculation. Incubation was carried out at 37° C./5% CO2.
After incubation for 48 hours at 37° C./5% CO2, the culture medium was replaced by saline solution (physioloigcal NaCl solution) and the fibroblasts were exposed to a dose of UVA (365 nm, 20 J/cm^2; tubes: MAZDA FLUOR TFWN40).
After the exposure to UVA, the MDA level (malonaldialdehyde level) in the supernatant sodium chloride solution was quantitatively determined by reaction with thiobarbituric acid. The protein content was determined by Bradford's method using a Coomassie Brilliant Blue color (Bradford, Analytical Biochem., 72; 248-254; 1976).

Take `CC(=O)Oc1ccccc1C(=O)O` [acetylsalicylic acid]: the “Content of LDH released” value in data set [1] (UVB alone = 100) is listed as 3(2). In addition, in data set [1] (control without UV = 100), the Number of keratinocytes is 76(5).

Take vitamin E: the MDA level in data set [2] (20 J/cm^2) is given as 31(4) % versus control. In addition, the Protein content in data set [2] was 102(11) % versus control.
